Tests used:
RAMP2-CLR (AM1 receptor) = target: T1, RAMP2-CLR (AM1 receptor) (Homo sapiens, UniProt O60895+Q16602); assay: (Ca^2+)i mobilization, HEK-293S cells, RAMP2 + CLR; type: cell-based; details: HEK293S, percentage of maximal (Ca^2+)i release with 10 μM ionomycin, mean ± S.E., n = 5
T1 construct: FLAG; expressed in transfected cells; host or cells: HEK-293 or HEK-293S cells, transient transfection, 1:1 RAMP:CLR
Protocol: HEK-293 cells were transfected with FuGENE 6 (Roche Applied Science) in accordance with the manufacturer's instructions using a 1:3 (w:v) DNA:FuGENE ratio and a 1:1 ratio of RAMP to CLR. […] The transfected cell lines were grown for 24–48 h prior to assaying.
Transfected HEK-293 cells were grown to confluence in black, clear bottomed, 96-well plates. […] Cells were then washed followed by the addition of 100 μl of Ca^2+-free Hanks' balanced salt solution. […] Recordings were obtained every 0.5 s for 120 s. Peak magnitude was calculated using five-point smoothing followed by correction against background fluorescence. The peak was used to generate concentration-response curves and normalized relative to 10 μM ionomycin.
Data analysis for cAMP assays was performed in GraphPad Prism 6.0f (San Diego, CA). […] These values were then used to quantify signaling bias as change in log (τ/Ka) relative to the natural cognate ligand for the respective receptor ([41]). […] Statistical differences were analyzed using one-way ANOVA or Student's t test as appropriate with post hoc Bonferroni's or Dunnett's multiple comparisons, and p < 0.05 was considered significant. […] To quantitate the ligand-dependent response in the yeast system, a strain lacking GPA1 (MMY11), grown in rich medium, was used as a standard ([72]). […]

RAMP3-CLR (AM2 receptor) = target: T2, RAMP3-CLR (AM2 receptor) (Homo sapiens, UniProt O60896+Q16602); assay: (Ca^2+)i mobilization, HEK-293 cells, RAMP3 + CLR; type: cell-based; details: HEK293, percentage of maximal (Ca^2+)i release with 10 μM ionomycin, mean ± S.E., n = 5
T2 construct: FLAG; expressed in transfected cells; host or cells: HEK-293 or HEK-293S cells, transient transfection, 1:1 RAMP:CLR
T2 sequence (Q16602 23-461): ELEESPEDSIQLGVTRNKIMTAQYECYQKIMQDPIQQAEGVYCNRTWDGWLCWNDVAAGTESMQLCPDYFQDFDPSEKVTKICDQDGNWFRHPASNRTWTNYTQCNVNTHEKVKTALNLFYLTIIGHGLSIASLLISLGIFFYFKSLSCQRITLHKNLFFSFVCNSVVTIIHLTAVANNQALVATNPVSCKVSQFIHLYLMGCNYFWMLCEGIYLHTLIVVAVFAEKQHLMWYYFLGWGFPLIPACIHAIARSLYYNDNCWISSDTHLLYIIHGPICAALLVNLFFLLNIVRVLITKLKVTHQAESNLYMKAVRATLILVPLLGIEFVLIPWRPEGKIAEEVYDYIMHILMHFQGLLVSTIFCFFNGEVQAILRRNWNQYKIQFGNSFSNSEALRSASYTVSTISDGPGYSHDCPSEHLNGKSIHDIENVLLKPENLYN
T2 sequence (O60896 24-148): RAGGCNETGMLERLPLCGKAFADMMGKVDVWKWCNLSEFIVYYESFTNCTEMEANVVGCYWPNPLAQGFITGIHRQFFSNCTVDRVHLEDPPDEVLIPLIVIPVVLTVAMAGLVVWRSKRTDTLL
Protocol: HEK-293 cells, provided by Dr. Jügen Müller (University of Aston), were cultured in DMEM supplemented with 10% heat-inactivated FBS and kept at 37 °C in a humidified 95% air, 5% CO2 incubator. HEK-293S cells (a gift from AstraZeneca) were cultured in DMEM supplemented with 8% heat-inactivated FBS and kept at 37 °C in a humidified 95% air, 5% CO2 incubator. HEK-293 cells were transfected with FuGENE 6 (Roche Applied Science) in accordance with the manufacturer's instructions using a 1:3 (w:v) DNA:FuGENE ratio and a 1:1 ratio of RAMP to CLR. HEK-293S cells were seeded into 96-well poly-D-lysine-coated plates at a density of 15,000 cells/well (determined using a Countess^TM cell counter, Invitrogen) 1 day prior to transfection. HEK-293S cells were transiently transfected as described previously ([38]) using a 1:1 ratio of RAMP to CLR. The transfected cell lines were grown for 24–48 h prior to assaying.
Transfected HEK-293 cells were grown to confluence in black, clear bottomed, 96-well plates. […] Ligands were added robotically using a Mithras LB 940 multimode microplate reader in the range of 10 pM to 1 μM, and fluorescence was determined immediately post-injection with an excitation wavelength set to 485 nm and an emission wavelength set to 535 nm. […] Peak magnitude was calculated using five-point smoothing followed by correction against background fluorescence. […]

T1 sequence (Q16602 23-461): as the sequence (Q16602 23-461) above
T1 sequence (O60895 43-175): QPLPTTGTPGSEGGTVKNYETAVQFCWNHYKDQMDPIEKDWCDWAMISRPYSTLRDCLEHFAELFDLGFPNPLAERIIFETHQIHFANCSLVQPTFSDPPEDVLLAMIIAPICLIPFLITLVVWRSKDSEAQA

Emax (RAMP2-CLR (AM1 receptor)) [%] | Emax (RAMP3-CLR (AM2 receptor)) [%] | SMILES
20.2 ± 2.8 | – | CSCC[C@H](NC(=O)[C@H](CC(C)C)NC(=O)[C@H](CCC(N)=O)NC(=O)[C@H](Cc1c[nH]c2ccccc12)NC(=O)[C@H](CC(C)C)NC(=O)[C@H](CCCNC(=N)N)NC(=O)[C@H](Cc1c[nH]cn1)NC(=O)[C@H](CO)NC(=O)[C@H](CC(C)C)NC(=O)[C@H](CC(N)=O)NC(=O)[C@H](CCC(N)=O)NC(=O)[C@@H](NC(=O)[C@H](CCC(N)=O)NC(=O)[C@@H]1CSSC[C@H](NC(=O)CNC(=O)[C@@H](NC(=O)[C@H](CCCNC(=N)N)NC(=O)[C@H](CC(C)C)NC(=O)[C@H](CC(C)C)NC(=O)[C@H](CCC(N)=O)NC(=O)[C@H](C)NC(=O)[C@H](CCC(N)=O)NC(=O)[C@@H](N)[C@@H](C)O)C(C)C)C(=O)N[C@@H](C(C)C)C(=O)N[C@@H](CC(C)C)C(=O)NCC(=O)N[C@@H]([C@@H](C)O)C(=O)N1)C(C)C)C(=O)NCC(=O)N1CCC[C@H]1C(=O)N[C@@H](C)C(=O)NCC(=O)N[C@@H](CCCNC(=N)N)C(=O)N[C@@H](CCC(N)=O)C(=O)N[C@@H](CC(=O)O)C(=O)N[C@@H](CO)C(=O)N[C@@H](C)C(=O)N1CCC[C@H]1C(=O)N[C@H](C(=O)N[C@@H](CC(=O)O)C(=O)N1CCC[C@H]1C(=O)N[C@@H](CO)C(=O)N[C@@H](CO)C(=O)N1CCC[C@H]1C(=O)N[C@@H](Cc1c[nH]cn1)C(=O)N[C@@H](CO)C(=O)N[C@@H](Cc1ccc(O)cc1)C(N)=O)C(C)C [AM2, adrenomedullin 2]
– | 56.7 ± 6.6 | CC[C@H](C)[C@H](NC(=O)[C@H](CCC(N)=O)NC(=O)[C@H](Cc1c[nH]cn1)NC(=O)[C@H](C)NC(=O)[C@H](CC(C)C)NC(=O)[C@H](CCCCN)NC(=O)[C@H](CCC(N)=O)NC(=O)[C@@H](NC(=O)[C@@H](NC(=O)[C@@H]1CSSC[C@H](NC(=O)CNC(=O)[C@H](Cc2ccccc2)NC(=O)[C@H](CO)NC(=O)[C@H](CCCNC(=N)N)NC(=O)[C@H](CC(C)C)NC(=O)CNC(=O)[C@H](CCC(N)=O)NC(=O)[C@H](Cc2ccccc2)NC(=O)[C@H](CC(N)=O)NC(=O)[C@H](CC(N)=O)NC(=O)[C@H](CCSC)NC(=O)[C@H](CO)NC(=O)[C@H](CCC(N)=O)NC(=O)[C@H](CCCNC(=N)N)NC(=O)[C@@H](N)Cc2ccc(O)cc2)C(=O)N[C@@H](CCCNC(=N)N)C(=O)N[C@@H](Cc2ccccc2)C(=O)NCC(=O)N[C@@H]([C@@H](C)O)C(=O)N1)[C@@H](C)O)C(C)C)C(=O)N[C@@H](Cc1ccc(O)cc1)C(=O)N[C@@H](CCC(N)=O)C(=O)N[C@@H](Cc1ccccc1)C(=O)N[C@H](C(=O)N[C@@H](CC(=O)O)C(=O)N[C@@H](CCCCN)C(=O)N[C@@H](CC(=O)O)C(=O)N[C@@H](CCCCN)C(=O)N[C@@H](CC(=O)O)C(=O)N[C@@H](CC(N)=O)C(=O)N[C@H](C(=O)N[C@@H](C)C(=O)N1CCC[C@H]1C(=O)N[C@@H](CCCNC(=N)N)C(=O)N[C@@H](CO)C(=O)N[C@@H](CCCCN)C(=O)N[C@H](C(=O)N[C@@H](CO)C(=O)N1CCC[C@H]1C(=O)N[C@@H](CCC(N)=O)C(=O)NCC(=O)N[C@@H](Cc1ccc(O)cc1)C(N)=O)[C@@H](C)CC)C(C)C)[C@@H](C)O [AM, adrenomedullin]
